How the values were obtained:
BMX = BMX (Homo sapiens (Human), UniProt P51813); experiment: 33P ATP HotSpot kinase assay, BMX; type: biochemical; conditions: 10 μM ATP
Experimental: (§1) (See, e.g., Ma, et al, 2008 Expert Opin Drug Discov. 3(6): 607-621.)
(§2) Each of Compound-1 to Compound-24 was measured for its inhibitory activity on TEC family kinases, BMX and ITK. The measurement was carried out in the same process as described above, BMX, ITK enzymes were used.

BTK wt = BTK wt (Homo sapiens (Human), UniProt Q06187); experiment: 33P ATP HotSpot kinase assay, BTK wt; type: biochemical; conditions: 10 μM ATP
Source text: as §1

EGFR wt = EGFR wt (Homo sapiens (Human), UniProt P00533); experiment: 33P ATP HotSpot kinase assay, EGFR wt; type: biochemical; conditions: 10 μM ATP
ITK = ITK (Homo sapiens (Human), UniProt Q08881); experiment: 33P ATP HotSpot kinase assay, ITK; type: biochemical; conditions: 10 μM ATP
Experimental: as §1, §2

[1] = target: BTK phosphorylation at tyrosine 223 (Homo sapiens (Human), UniProt Q06187); experiment: Immunoblot analysis of phospho-BTK(Y223) in Ramos cells; type: cell-based; conditions: 1 hr treatment, anti-IgM stimulation, western blot
Experimental: Ramos cells were cultured in RPMI-1640 medium with 10% fetal bovine serum (FBS) and 1% penicillin/streptomycin (Gibco BRL). Before the assay, Ramos cells were counted and seeded at 1×10^6 cells/mL, cultured overnight in RPMI-1640 medium with 10% FBS, the cells were centrifuged at 950 rpm for 10 min., then 1˜2×10^6 cells were split into each tube in 300 μL medium. The cells were treated with certain compounds of Compound 1-24 at 0˜3 μM for 1 hr. in 37° C., then the cells were stimulated with 10 μg/mL of anti-IgM (BioLegend) for 5 min., followed by 3 min. spin at 2000 rpm. After aspirating the supernatant, 60 μL of RIPA lysis buffer (50 mM Tris-HCl, 1 mM EDTA, 1% NP-40, 0.5% sodium deoxycholate, and 0.1% SDS, pH 7.4, 150 mM NaCl, 1 mM Na3VO4) was added to the cell pellet to lyse the cells on ice for 30 min. After spin at 10,000 rpm for 5 min., 60 μL of the cell lysate was transferred to a fresh tube, and 20 μL of 4× LDS buffer was added to the tube. The samples were boiled on a 100° C. heat block for 10 min. 25 μL lysate was loaded on to SDS-PAGE gel (NuPAGE™ Novex™ 4-12% Bis-Tris Midi Protein Gels, cat. no. WG1402BOX, ThermoFisher) for western blotting analysis per the manufacturer's instructions. Antibodies used for immunoblot analysis include Btk and p-Btk(Y223) (cat. no. 3553 and 5082; Cell Signaling Technology, Beverly, Mass.). p-Btk(Y223) (cat. no. GTX61791; GeneTex, Inc., Irvine, Calif.). Membranes were detected using infrared fluorescence dye (IRDye® 800CW Donkey anti-Rabbit IgG (H+L), cat. no. P/N 925-32213; IRDye® 680RD Donkey anti-Mouse IgG (H+L), cat. no. P/N 925-68072 and scanned on a LiCor Odyssey scanner (LiCor Biosciences, Lincoln, Nebr.).

FAK = FAK (Homo sapiens (Human), UniProt Q05397); experiment: 33P ATP HotSpot kinase assay, FAK; conditions: read-out: IC50 FAK, 10 μM ATP
EOL-1 cells = experiment: Cancer cell growth inhibition, EOL-1; type: cell-based; conditions: Homo sapiens, EOL1, 72 hr, cell viability
Experimental: (§3) In order to test certain compounds of Compounds 1 to 24 for cancer cell growth inhibition, a leukemia cancer cell line EOL-1, and triple negative breast cancer cell line MDA-MB-231 was used.
(§4) EOL-1 and MDA-MB-231 cells were cultured in a RPMI-1640 cell culture medium supplemented with 10% fetal bovine serum (FBS) and 1% penicillin/streptomycin (Gibco BRL).
(§5) The cancer cell lines stored in a liquid nitrogen tank were each quickly thawed at 37° C. water bath, and centrifuged to remove the DMSO in the freezing medium. The resulting cell pellet was mixed with a culture medium, incubated in a culture flask at 37° C. under 5% CO2 for 2 to 3 days. The EOL-1 cells were sub-cultured by 1:5˜10 dilution in fresh culture medium. For MD-MB-231 cells, the culture medium was removed and the remaining cells were washed with PBS (Phosphate Buffered Saline) and trypsinized by trypsin-EDTA. The detached cells were sub-cultured by 1:5˜10 dilution in fresh culture medium.
(§6) For the cell growth inhibition assay, the cells were seeded in 96-well cell culture plates at 5×10^4 cells/well for EOL-1 and 5×10^3 cells/well for MDA-MB-231 cells in 50 μL and incubated at 37° C. under 5% CO2 for 3 to 6 hr. before the compounds were added.
(§7) Certain compounds of Compounds 1-24 were dissolved in dimethylsulfoxide (DMSO) to a concentration of 10 mM. The DMSO solution containing test compound was diluted with a culture medium to a final concentration of 600 μM, and then diluted 100 times to 6 μM as top dose followed by 1:3 serial dilutions, and then add 50 μL diluted compounds to the 50 μL cells, with a final top dose at 3 μM and the plate was incubated at 37° C. under 5% CO2 for 72 hr. The cell viability was determined by Cell Meter™ Fluorimetric Cell Cytotoxicity Assay Kit (AAT Bioquest) according to the manufacturer's instructions. Briefly, thaw and warm up the Assay Solution (Component A) to 37° C., and mix it thoroughly. Add 20 μL/well (96-well plate) of Assay Solution (Component A). Mix the reagents by shaking the plate gently for 30 seconds. Incubate the cells in a 37° C., 5% CO2 incubator for 1-24 hr., protected from light. Monitor the fluorescence intensity (bottom read) at Ex/Em=540/590 nm. Alternatively, read the O.D. at 570 nm (the reference wavelength should be 600 nm) to determine the cell viability in each well.

MDA-MB-231 cells = experiment: Cancer cell growth inhibition, MDA-MB-231; type: cell-based; conditions: Homo sapiens, 72 hr, cell viability
Experimental: as §3, §4, §5, §6, §7

EGFR wt, sequence (P00533 25-1210): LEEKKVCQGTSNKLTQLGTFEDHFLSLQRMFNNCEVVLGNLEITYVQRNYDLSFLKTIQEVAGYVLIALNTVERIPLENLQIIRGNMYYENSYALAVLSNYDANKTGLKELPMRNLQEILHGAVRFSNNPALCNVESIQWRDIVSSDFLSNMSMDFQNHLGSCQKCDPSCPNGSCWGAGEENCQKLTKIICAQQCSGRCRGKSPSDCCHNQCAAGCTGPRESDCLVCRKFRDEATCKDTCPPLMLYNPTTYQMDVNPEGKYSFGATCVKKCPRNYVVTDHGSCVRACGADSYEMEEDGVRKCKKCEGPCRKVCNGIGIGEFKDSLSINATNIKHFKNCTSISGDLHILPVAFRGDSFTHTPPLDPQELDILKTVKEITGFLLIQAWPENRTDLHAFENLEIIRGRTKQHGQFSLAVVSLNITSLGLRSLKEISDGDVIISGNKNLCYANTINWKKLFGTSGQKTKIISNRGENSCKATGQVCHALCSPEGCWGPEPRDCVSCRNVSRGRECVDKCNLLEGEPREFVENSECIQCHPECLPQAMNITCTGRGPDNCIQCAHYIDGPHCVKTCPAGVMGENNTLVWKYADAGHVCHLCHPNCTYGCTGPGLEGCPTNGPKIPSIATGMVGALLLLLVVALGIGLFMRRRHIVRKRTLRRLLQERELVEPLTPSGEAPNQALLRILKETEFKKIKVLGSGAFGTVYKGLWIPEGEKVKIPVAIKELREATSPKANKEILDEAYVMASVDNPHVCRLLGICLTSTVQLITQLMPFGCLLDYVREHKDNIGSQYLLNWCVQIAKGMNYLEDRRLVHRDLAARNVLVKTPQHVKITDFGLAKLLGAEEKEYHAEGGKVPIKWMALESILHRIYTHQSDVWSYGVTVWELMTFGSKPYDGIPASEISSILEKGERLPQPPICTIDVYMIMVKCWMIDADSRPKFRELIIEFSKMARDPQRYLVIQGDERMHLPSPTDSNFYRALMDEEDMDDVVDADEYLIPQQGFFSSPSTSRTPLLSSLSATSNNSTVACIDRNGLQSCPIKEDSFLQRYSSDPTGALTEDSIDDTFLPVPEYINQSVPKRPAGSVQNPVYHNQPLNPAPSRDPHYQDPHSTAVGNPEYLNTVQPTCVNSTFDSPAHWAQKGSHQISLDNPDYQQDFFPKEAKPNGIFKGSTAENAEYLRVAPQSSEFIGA
BTK wt, sequence (Q06187 whole entry): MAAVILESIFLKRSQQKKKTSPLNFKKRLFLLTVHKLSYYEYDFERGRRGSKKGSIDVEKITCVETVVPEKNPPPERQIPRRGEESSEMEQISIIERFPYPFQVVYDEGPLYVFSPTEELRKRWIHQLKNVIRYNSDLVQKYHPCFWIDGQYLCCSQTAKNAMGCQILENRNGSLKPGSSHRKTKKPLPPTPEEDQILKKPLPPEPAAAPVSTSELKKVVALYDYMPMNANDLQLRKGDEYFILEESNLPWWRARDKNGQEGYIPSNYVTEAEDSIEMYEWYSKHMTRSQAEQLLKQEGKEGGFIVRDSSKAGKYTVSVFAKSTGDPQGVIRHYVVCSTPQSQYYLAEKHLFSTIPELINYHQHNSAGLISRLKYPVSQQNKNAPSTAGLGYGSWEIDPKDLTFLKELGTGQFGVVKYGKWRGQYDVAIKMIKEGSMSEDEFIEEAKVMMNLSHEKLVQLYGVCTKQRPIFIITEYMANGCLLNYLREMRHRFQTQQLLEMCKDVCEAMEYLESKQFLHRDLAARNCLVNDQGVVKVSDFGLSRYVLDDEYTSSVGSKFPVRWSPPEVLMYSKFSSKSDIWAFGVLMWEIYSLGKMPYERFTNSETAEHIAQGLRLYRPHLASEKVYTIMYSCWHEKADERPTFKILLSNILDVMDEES
BTK phosphorylation at tyrosine 223, sequence (Q06187 whole entry): as above
ITK, sequence (Q08881 whole entry): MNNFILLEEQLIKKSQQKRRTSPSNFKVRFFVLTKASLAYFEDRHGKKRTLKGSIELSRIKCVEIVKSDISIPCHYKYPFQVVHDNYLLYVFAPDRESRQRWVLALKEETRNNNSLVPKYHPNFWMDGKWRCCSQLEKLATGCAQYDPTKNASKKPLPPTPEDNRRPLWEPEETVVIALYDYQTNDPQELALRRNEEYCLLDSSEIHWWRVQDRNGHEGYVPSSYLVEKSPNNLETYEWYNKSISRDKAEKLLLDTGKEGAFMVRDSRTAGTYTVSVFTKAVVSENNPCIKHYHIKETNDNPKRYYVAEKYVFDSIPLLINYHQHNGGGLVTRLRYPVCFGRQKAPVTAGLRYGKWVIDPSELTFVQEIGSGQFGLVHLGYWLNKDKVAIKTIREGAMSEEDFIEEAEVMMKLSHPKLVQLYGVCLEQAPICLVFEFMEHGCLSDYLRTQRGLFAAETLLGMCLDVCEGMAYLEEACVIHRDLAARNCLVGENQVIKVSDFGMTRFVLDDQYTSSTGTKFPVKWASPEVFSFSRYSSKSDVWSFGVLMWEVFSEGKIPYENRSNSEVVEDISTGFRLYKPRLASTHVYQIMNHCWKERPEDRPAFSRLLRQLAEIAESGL
FAK, sequence (Q05397 whole entry): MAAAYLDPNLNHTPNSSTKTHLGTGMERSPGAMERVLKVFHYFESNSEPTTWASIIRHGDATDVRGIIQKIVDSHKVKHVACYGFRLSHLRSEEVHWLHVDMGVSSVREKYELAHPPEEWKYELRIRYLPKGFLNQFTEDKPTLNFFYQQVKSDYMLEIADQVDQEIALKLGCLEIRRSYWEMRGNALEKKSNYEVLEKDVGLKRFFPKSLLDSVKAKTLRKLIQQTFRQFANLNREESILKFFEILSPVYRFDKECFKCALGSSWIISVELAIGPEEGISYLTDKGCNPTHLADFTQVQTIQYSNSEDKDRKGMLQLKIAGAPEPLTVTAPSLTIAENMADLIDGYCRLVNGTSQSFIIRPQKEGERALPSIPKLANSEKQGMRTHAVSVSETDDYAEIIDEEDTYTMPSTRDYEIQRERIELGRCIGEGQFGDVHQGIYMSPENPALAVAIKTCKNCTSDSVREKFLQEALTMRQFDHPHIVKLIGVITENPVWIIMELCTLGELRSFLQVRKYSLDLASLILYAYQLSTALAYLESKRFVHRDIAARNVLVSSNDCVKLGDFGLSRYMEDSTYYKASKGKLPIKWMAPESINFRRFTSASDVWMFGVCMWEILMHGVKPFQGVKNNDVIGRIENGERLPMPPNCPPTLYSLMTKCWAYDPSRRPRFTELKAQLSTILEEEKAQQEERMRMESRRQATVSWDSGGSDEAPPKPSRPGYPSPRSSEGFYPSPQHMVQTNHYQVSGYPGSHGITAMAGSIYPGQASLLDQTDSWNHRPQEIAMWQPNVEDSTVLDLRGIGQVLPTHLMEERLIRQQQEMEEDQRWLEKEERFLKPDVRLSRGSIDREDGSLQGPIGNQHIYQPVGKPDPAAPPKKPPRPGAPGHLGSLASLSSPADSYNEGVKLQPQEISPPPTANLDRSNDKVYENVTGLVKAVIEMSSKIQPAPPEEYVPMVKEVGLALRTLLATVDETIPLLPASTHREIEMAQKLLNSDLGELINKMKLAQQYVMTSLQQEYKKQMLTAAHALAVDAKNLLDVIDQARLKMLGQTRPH
BMX, sequence (P51813 whole entry): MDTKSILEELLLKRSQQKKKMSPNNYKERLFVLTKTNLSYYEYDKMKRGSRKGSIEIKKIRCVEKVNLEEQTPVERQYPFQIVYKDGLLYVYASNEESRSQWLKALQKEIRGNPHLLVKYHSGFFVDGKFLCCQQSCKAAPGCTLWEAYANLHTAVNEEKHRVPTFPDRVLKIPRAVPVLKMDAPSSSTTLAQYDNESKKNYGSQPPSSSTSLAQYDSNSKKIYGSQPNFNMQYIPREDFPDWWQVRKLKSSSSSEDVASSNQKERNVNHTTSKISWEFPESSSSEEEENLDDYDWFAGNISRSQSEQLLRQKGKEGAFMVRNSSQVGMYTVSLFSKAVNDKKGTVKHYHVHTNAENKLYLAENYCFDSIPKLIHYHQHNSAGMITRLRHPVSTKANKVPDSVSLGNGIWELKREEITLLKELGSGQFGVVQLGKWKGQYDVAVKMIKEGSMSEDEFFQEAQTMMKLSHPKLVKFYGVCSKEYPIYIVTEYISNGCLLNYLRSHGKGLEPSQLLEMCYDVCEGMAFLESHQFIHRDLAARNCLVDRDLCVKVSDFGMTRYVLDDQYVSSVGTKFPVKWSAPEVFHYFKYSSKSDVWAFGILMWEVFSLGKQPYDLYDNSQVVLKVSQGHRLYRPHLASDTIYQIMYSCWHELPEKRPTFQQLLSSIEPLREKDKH

Row | Structure (SMILES) | IC50 (BMX) | IC50 (BTK wt) | IC50 (EGFR wt) | IC50 (ITK) | EC50 [1] | IC50 (FAK) | IC50 (EOL-1 cells) | IC50 (MDA-MB-231 cells)
1 | CN([C@@H]1c2ccccc2C[C@H]1Oc1nc(Nc2ccc3c(c2)OCCOCCOCCO3)nc2[nH]cnc12)S(C)(=O)=O [Compound-31, N-methyl-N-[(1R,2R)-2-[[2-(2,5,8,11-tetraoxabicyclo[10.4.0]hexadeca-1(12),13,15-trien-14-ylamino)-9H-purin-6-yl]oxy]indan-1-yl]methanesulfonamide] |  | 198 nM |  |  |  |  |  | 
2 | CN(C1CCCC1Oc1nc(Nc2ccc3c(c2)OCCOCCOCCO3)nc2[nH]ccc12)S(C)(=O)=O (stereo not drawn) [Compound-18, N-methyl-N-[2-[[2-(2,5,8,11-tetraoxabicyclo[10.4.0]hexadeca-1(16),12,14-trien-14-ylamino)-7H-pyrrolo[2,3-d]pyrimidin-4-yl]oxy]cyclopentyl]methanesulfonamide] |  | > 1000 nM | > 1000 nM |  |  |  | 750 nM | 1500 nM
3 | CCC(=O)N1CCC[C@@H](Nc2nc(Nc3ccc4c(c3)OCCOCCOCCO4)nc3[nH]cnc23)C1 [Compound-4, 1-[(3R)-3-[[2-(2,5,8,11-tetraoxabicyclo[10.4.0]hexadeca-1(12),13,15-trien-14-ylamino)-9H-purin-6-yl]amino]-1-piperidyl]propan-1-one] | 19.6 nM | 144 nM |  | 1450 nM | 100 to 1000 nM | 1150 nM |  | 
4 | CN([C@@H]1CCCC[C@H]1Oc1nc(Nc2ccc3c(c2)OCCOCCOCCO3)nc2[nH]ccc12)S(C)(=O)=O [Compound-16, N-methyl-N-[(1R,2R)-2-[[2-(2,5,8,11-tetraoxabicyclo[10.4.0]hexadeca-1(16),12,14-trien-14-ylamino)-7H-pyrrolo[2,3-d]pyrimidin-4-yl]oxy]cyclohexyl]methanesulfonamide] |  | > 1000 nM | > 1000 nM |  |  | 34.9 nM | 2000 nM | 3000 nM
5 | c1cc(Nc2nc(Nc3ccc4c(c3)OCCOCCOCCO4)nc3[nH]cnc23)c2[nH]ccc2c1 [Compound-23, N6-(1H-indol-7-yl)-N2-(2,5,8,11-tetraoxabicyclo[10.4.0]hexadeca-1(12),13,15-trien-14-yl)-9H-purine-2,6-diamine] |  | 62.8 nM | > 1000 nM |  |  | 257 nM |  | 
6 | C=CC(=O)N1CCC[C@@H](Nc2nc(Nc3ccc(OCCCOC4(CC)OCC(C)(C)CO4)cc3)ncc2F)C1 [Compound-1, 1-[(3R)-3-[[2-[4-[3-[(2-ethyl-5,5-dimethyl-1,3-dioxan-2-yl)oxy]propoxy]anilino]-5-fluoro-pyrimidin-4-yl]amino]-1-piperidyl]prop-2-en-1-one] |  |  |  |  | 100 to 1000 nM |  | > 3000 nM | > 3000 nM
7 | CC(=O)Nc1cc(C(F)(F)F)ccc1Nc1nc(Nc2ccc3c(c2)OCCOCCOCCO3)nc2[nH]cnc12 [Compound-29, N-[2-[[2-(2,5,8,11-tetraoxabicyclo[10.4.0]hexadeca-1(12),13,15-trien-14-ylamino)-9H-purin-6-yl]amino]-5-(trifluoromethyl)phenyl]acetamide] |  | 67.1 nM |  |  |  |  |  | 
8 | c1cc(Nc2nc(Nc3ccc4c(c3)OCCOCCOCCO4)nc3[nH]cnc23)c2cc[nH]c2c1 [Compound-22, N6-(1H-indol-4-yl)-N2-(2,5,8,11-tetraoxabicyclo[10.4.0]hexadeca-1(12),13,15-trien-14-yl)-9H-purine-2,6-diamine] |  | 21.4 nM | > 1000 nM |  |  | 42.4 nM | 1200 nM | > 3000 nM
9 | CN([C@@H]1c2ccccc2C[C@H]1Oc1cc(Nc2ccc3c(c2)OCCOCCOCCO3)ncc1C(F)(F)F)S(C)(=O)=O [Compound-32, N-methyl-N-[(1R,2R)-2-[[2-(2,5,8,11-tetraoxabicyclo[10.4.0]hexadeca-1(12),13,15-trien-14-ylamino)-5-(trifluoromethyl)-4-pyridyl]oxy]indan-1-yl]methanesulfonamide] |  | > 10000 nM |  |  |  |  |  | 

Results, then the compound that gave them:

Row | IC50 (BMX) | IC50 (BTK wt) | IC50 (EGFR wt) | IC50 (ITK) | EC50 [1] | IC50 (FAK) | IC50 (EOL-1 cells) | IC50 (MDA-MB-231 cells) | Structure (SMILES)
10 | 46.4 nM | 88.8 nM | > 1000 nM | 1290 nM | 100 to 1000 nM | 1130 nM |  |  | CCC(=O)Nc1cccc(Nc2nc(Nc3ccc4c(c3)OCCOCCOCCO4)nc3[nH]cnc23)c1 [Compound-8, N-[3-[[2-(2,5,8,11-tetraoxabicyclo[10.4.0]hexadeca-1(12),13,15-trien-14-ylamino)-9H-purin-6-yl]amino]phenyl]propanamide]
11 |  | 9.37 nM |  |  |  |  |  |  | CC(=O)Nc1cc(F)ccc1Nc1nc(Nc2ccc3c(c2)OCCOCCOCCO3)nc2[nH]cnc12 [Compound-28, N-[5-fluoro-2-[[2-(2,5,8,11-tetraoxabicyclo[10.4.0]hexadeca-1(12),13,15-trien-14-ylamino)-9H-purin-6-yl]amino]phenyl]acetamide]
12 |  | 33.3 nM |  |  |  |  |  |  | C=CC(=O)Nc1cc(C)ccc1Nc1nc(Nc2ccc3c(c2)OCCOCCOCCO3)nc2[nH]ncc12 [Compound-26, N-[5-methyl-2-[[6-(2,5,8,11-tetraoxabicyclo[10.4.0]hexadeca-1(12),13,15-trien-14-ylamino)-1H-pyrazolo[3,4-d]pyrimidin-4-yl]amino]phenyl]prop-2-enamide]
13 | < 100 nM | < 100 nM | 732 nM | < 100 nM | < 100 nM | > 1000 nM |  |  | C=CC(=O)Nc1cccc(Nc2nc(Nc3ccc4c(c3)OCCOCCOCCO4)ncc2F)c1 [Compound-6, N-[3-[[5-fluoro-2-(2,5,8,11-tetraoxabicyclo[10.4.0]hexadeca-1(12),13,15-trien-14-ylamino)pyrimidin-4-yl]amino]phenyl]prop-2-enamide]
14 |  | 16.8 nM |  |  |  |  |  |  | CC(=O)Nc1cc(C)ccc1Nc1nc(Nc2ccc3c(c2)OCCOCCOCCO3)nc2[nH]cnc12 [Compound-27, N-[5-methyl-2-[[2-(2,5,8,11-tetraoxabicyclo[10.4.0]hexadeca-1(12),13,15-trien-14-ylamino)-9H-purin-6-yl]amino]phenyl]acetamide]
15 |  | 613 nM |  |  |  | > 1000 nM |  |  | C=CC(=O)Nc1cccc(-c2nc(Nc3ccc4c(c3)OCCOCCOCCO4)ncc2F)c1 [Compound-30, N-[3-[5-fluoro-2-(2,5,8,11-tetraoxabicyclo[10.4.0]hexadeca-1(12),13,15-trien-14-ylamino)pyrimidin-4-yl]phenyl]prop-2-enamide]
